Test results: patent US20230212549A1, “COMPOUNDS COMPRISING A […] LIGAND AND USE THEREOF” (priority 2021, published 2023)
Numbered stars: 1 amine (or outer) side, 2 acyl side, 3 side chain; on linkers, the order of the positions; unused ones are H or OH. Bridge positions count the residues as written; N and C are the ends. Square brackets hold non-standard residues; d marks the D form. Peptide text beside a SMILES is read from it. * marks the point of attachment. ξ: configuration not given here. X7 = O=C(CCP(=O)(O)CN1CCN(CP(=O)(O)CO)CCN(CP(=O)(O)CO)CC1)NCCSCc1cc(C[*:1])cc(C[*:2])c1; X1 = NCCNCC(CNCCN)C(=O)N1CCN(CC(=O)NCCCOCCOCCOCCCN*)CC1; mXylylene = c1cc(C[*:1])cc(C[*:2])c1; Suc = O=C(CCC(=O)[*:2])[*:1]; Nle = CCCC[C@H](N)C(=O)O; CO = O=C([*:1])[*:2]; ξC = NC(CS)C(=O)O; NHBu = CCCCN*

How the values were obtained:
[1] = target: T1, FAP-expressing human WI-38 fibroblasts (Homo sapiens, UniProt Q12884); experiment: Competitive FACS binding assay
T1 construct: FAP-expressing human WI-38 fibroblasts (ECACC) were cultured in EMEM; host or cells: WI-38 human fibroblasts
Procedure: Cells were analyzed in an Attune NxT flow cytometer. […] […].
Cells were analyzed in an Attune NxT flow cytometer. […]

[2] = Radiochemical purity by HPLC of ^99mTc-labeled compounds; format: physicochemical; conditions: 99Tc-labeled compounds
Procedure: 100-500 MBq of ^99mTcO4 (in saline) were mixed with 11 μl of 0.5 M phosphate buffer pH 11.5-12.0 and 1.1 μl of 0.1 M trisodium citrate per 100 μl radionuclide solution. […] The mixture was incubated for 30 min at 25-50′° C. At the end of the incubation time, the mixture was neutralized with 3.0 μl 1 M HCl per 10 μl phosphate buffer and TWEEN-20 was added at a final concentration of 0.100.

in vivo [3] = conditions: swiss nude, mouse, iv
Human recombinant FAP [4] = target: T2, Human recombinant FAP (Homo sapiens, UniProt Q12884); experiment: FRET-based FAP protease activity assay; format: biochemical; set-up: purchased R&D systems 3715-SE
Human recombinant FAP [5] = target: T2, Human recombinant FAP; experiment: Surface plasmon resonance (Biacore) assay; format: binding
in vivo [6] = conditions: female, athymic nude, mouse, iv
[7] = pIC50 Category (activity), Recombinant human FAP
[8] = blood pool surrogate (BPS), uptake BPS 0.25 h, ^68Ga-labeled, BPS (blood pool surrogate), PET/CT, 0.25 h post tracer injection
[9] = blood pool surrogate (BPS), uptake BPS 1 h, ^68Ga-labeled, BPS (blood pool surrogate), PET/CT, 1 h post tracer injection
[10] = blood pool surrogate (BPS), uptake BPS 3 h, ^68Ga-labeled, BPS (blood pool surrogate), PET/CT, 3 h post tracer injection
[11] = kidneys, uptake Kidneys 0.25 h, ^68Ga-labeled, PET/CT, 0.25 h post tracer injection
[12] = kidneys, uptake Kidneys 1 h, ^68Ga-labeled, PET/CT, 1 h post tracer injection
[13] = kidneys, uptake Kidneys 3 h, ^68Ga-labeled, PET/CT, 3 h post tracer injection
[14] = tumor, uptake Tumor 0.25 h, ^68Ga-labeled, HEK-FAP tumor, PET/CT, 0.25 h post tracer injection
[15] = tumor, uptake Tumor 1 h, ^68Ga-labeled, HEK-FAP tumor, PET/CT, 1 h post tracer injection
[16] = tumor, uptake Tumor 3 h, ^68Ga-labeled, HEK-FAP tumor, PET/CT, 3 h post tracer injection

T2 sequence (Q12884 whole entry): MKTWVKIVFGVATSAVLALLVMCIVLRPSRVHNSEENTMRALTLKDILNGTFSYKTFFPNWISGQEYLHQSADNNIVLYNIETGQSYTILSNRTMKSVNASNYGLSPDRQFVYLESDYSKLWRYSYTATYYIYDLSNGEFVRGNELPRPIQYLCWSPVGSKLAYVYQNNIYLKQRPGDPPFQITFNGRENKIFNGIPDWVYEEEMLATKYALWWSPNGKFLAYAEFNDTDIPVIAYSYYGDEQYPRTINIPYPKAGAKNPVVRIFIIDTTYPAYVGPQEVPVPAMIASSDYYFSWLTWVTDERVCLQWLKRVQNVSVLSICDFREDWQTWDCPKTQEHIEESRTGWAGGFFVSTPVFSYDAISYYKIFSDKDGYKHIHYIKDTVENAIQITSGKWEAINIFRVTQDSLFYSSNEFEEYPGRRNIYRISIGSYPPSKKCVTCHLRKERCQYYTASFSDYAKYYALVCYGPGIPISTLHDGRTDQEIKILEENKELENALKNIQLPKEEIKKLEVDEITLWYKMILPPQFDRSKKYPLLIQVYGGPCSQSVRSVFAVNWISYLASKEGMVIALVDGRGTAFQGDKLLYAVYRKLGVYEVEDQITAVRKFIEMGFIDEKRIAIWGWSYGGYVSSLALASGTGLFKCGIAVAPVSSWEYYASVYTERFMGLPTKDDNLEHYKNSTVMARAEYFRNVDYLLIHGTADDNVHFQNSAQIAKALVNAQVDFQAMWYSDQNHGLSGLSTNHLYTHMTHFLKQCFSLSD
T1 sequence (Q12884 whole entry): as above

Row | Compound | IC50 [1] [nM] | HPLC Area % at end of synthesis [2] [%] | tissue uptake at 1 h (in vivo [3]; blood pool surrogate (BPS)) [%ID/g] | tissue uptake at 3 h (in vivo [3]; blood pool surrogate (BPS)) [%ID/g] | tissue uptake at 6 h (in vivo [3]; blood pool surrogate (BPS)) [%ID/g] | tissue uptake at 1 h (in vivo [3]; kidneys) [%ID/g] | tissue uptake at 3 h (in vivo [3]; kidneys) [%ID/g] | tissue uptake at 6 h (in vivo [3]; kidneys) [%ID/g] | tissue uptake at 1 h (in vivo [3]; tumor) [%ID/g] | tissue uptake at 3 h (in vivo [3]; tumor) [%ID/g] | tissue uptake at 6 h (in vivo [3]; tumor) [%ID/g] | IC50 (Human recombinant FAP [4]; [7]) [nM] | Kd (Human recombinant FAP [5]) [nM] | further results
1 | CCCC[C@H](NC(=O)CCC(=O)NCCCOCCOCCOCCCNC(=O)CCOCCOCCOCCOCCOCCOCCNC(=O)C(CNCCN)CNCCN)C(=O)N[C@H]1CSCc2cccc(c2)CSCC(C(=O)O)NC(=O)[C@H](Cc2ccccc2)NC(=O)[C@H](CCC(N)=O)NC(=O)[C@H]([C@@H](C)O)NC(=O)[C@@H]2CCCN2C(=O)[C@@H]2CCCN2C1=O (stereo partly drawn) [3BP-4552, N4Ac-PEG6-Ttds-Nle-[Cys(3MeBn)-Pro-Pro-Thr-Gln-Phe-Cys]-OH] | 10 to 79.4 | 88.3 | 0.52 | 0.14 | 0.07 | 3.17 | 3.4 | 1.34 | 7.92 | 6.86 | 5.21 | 10 to 79.4 |  | 
2 | CCCCNC(=O)N[C@H]1CSCc2cc(cc(CN3CCN(C(=O)C(CNCCN)CNCCN)CC3)c2)CSC[C@@H](C(=O)O)NC(=O)[C@H](Cc2ccccc2)NC(=O)[C@H](CCC(N)=O)NC(=O)[C@H]([C@@H](C)O)NC(=O)[C@@H]2CCCN2C(=O)[C@@H]2CCCN2C1=O [3BP-4533, nBu-CAyl-[Cys(tMeBn(N4Ac-PP))-Pro-Pro-Thr-Gln-Phe-Cys]-OH] | < 10 | 99.3 | 1.72 | 1.46 | 0.86 | 6.04 | 4.43 | 3.04 | 5.45 | 6.27 | 6.75 |  |  | HPLC Area % appr. 4 h post end of synthesis ([2]; (3 h)): 98.2%; IC50 (Human recombinant FAP [4]; pIC50 Category (Activity), FRET-peptide substrate, 37° C.): < 10 nM
3 | CCCC[C@H](NC(=O)CCC(=O)NCCCOCCOCCOCCCNC(=O)CN1CCN(C(=O)C(CNCCN)CNCCN)CC1)C(=O)N[C@H]1CSCc2cccc(c2)CSC[C@@H](C(=O)N[C@@H](CC(=O)O)C(=O)O)NC(=O)[C@H](Cc2ccccc2)NC(=O)[C@H](CCC(=O)O)NC(=O)[C@H]([C@@H](C)O)NC(=O)[C@@H]2CCCN2C(=O)[C@@H]2CCCN2C1=O [3BP-4785, N4Ac-PPAc-Ttds-Nle-[Cys(3MeBn)-Pro-Pro-Thr-Glu-Phe-Cys]-Asp-OH] ({X1-Suc}-[Nle]CPPTEFCD-OH; linker 2-8 via mXylylene) | < 10 | 95.3 | 0.92 | 0.64 | 0.48 | 3.47 | 2.14 | 1.63 | 4.2 | 4.14 | 4.32 | < 10 |  | HPLC Area % appr. 4 h post end of synthesis [2]: 93.8%
4 | CCCC[C@H](NC(=O)CCC(=O)NCCCOCCOCCOCCCNC(=O)CN1CCN(C(=O)C(CNCCN)CNCCN)CC1)C(=O)N[C@H]1CSCc2cncc(c2)CSCC(C(=O)O)NC(=O)[C@H](Cc2ccccc2)NC(=O)[C@H](CCC(N)=O)NC(=O)[C@H]([C@@H](C)O)NC(=O)[C@@H]2CCCN2C(=O)[C@@H]2CCCN2C1=O (stereo partly drawn) [3BP-4774, N4Ac-PPAc-Ttds-Nle-[Cys(3Lut)-Pro-Pro-Thr-Gln-Phe-Cys]-OH] | 10 to 79.4 | 88.8 | 0.08 | 0.06 | 0.03 | 1.87 | 0.85 | 0.48 | 6.14 | 3.7 | 1.74 | 10 to 79.4 |  | HPLC Area % appr. 4 h post end of synthesis [2]: 86.1%
5 | CCCCNC(=O)N[C@H]1CSCc2cc(CSCCNC(=O)CCP(=O)(O)CN3CCN(CP(=O)(O)CO)CCN(CP(=O)(O)CO)CC3)cc(c2)CSCC(C(=O)O)NC(=O)[C@H](Cc2ccccc2)NC(=O)[C@H](CCC(N)=O)NC(=O)[C@H]([C@@H](C)O)NC(=O)[C@@H]2CCCN2C(=O)[C@@H]2CCCN2C1=O (stereo partly drawn) [3BP-4768, nBu-CAyl-[Cys(tMeBn(NOPO-AET))-Pro-Pro-Thr-Gln-Phe-Cys]-OH] | < 10 |  |  |  |  |  |  |  |  |  |  | < 10 | < 10 | tissue uptake at 0.25 h (in vivo [6]; [8]): 2.54 %ID/g; tissue uptake at 1 h (in vivo [6]; [9]): 0.78 %ID/g; tissue uptake at 3 h (in vivo [6]; [10]): 0.27 %ID/g; tissue uptake at 0.25 h (in vivo [6]; [11]): 18.4 %ID/g; tissue uptake at 1 h (in vivo [6]; [12]): 2.45 %ID/g; tissue uptake at 3 h (in vivo [6]; [13]): 0.67 %ID/g; tissue uptake at 0.25 h (in vivo [6]; [14]): 7.82 %ID/g; tissue uptake at 1 h (in vivo [6]; [15]): 9.42 %ID/g; tissue uptake at 3 h (in vivo [6]; [16]): 9.2 %ID/g
6 | CCCC[C@H](NC(=O)CCC(=O)NCCCOCCOCCOCCCNC(=O)CN1CCN(CC(=O)O)CCN(CC(=O)O)CC1)C(=O)N[C@H]1CSCc2cccc(c2)CSCC(C(=O)O)NC(=O)[C@H](Cc2ccccc2)NC(=O)[C@H](CCC(N)=O)NC(=O)[C@H]([C@@H](C)O)NC(=O)[C@@H]2CCCN2C(=O)[C@@H]2CCCN2C1=O (stereo partly drawn) [3BP-5201, NOTA-Ttds-Nle-[Cys(3MeBn)-Pro-Pro-Thr-Gln-Phe-Cys]-OH] | < 10 |  |  |  |  |  |  |  |  |  |  | 10 to 79.4 | < 10 | tissue uptake at 0.25 h (in vivo [6]; blood pool surrogate (BPS)): 2.31 %ID/g; tissue uptake at 1 h (in vivo [6]; blood pool surrogate (BPS)): 0.85 %ID/g; tissue uptake at 3 h (in vivo [6]; blood pool surrogate (BPS)): 0.38 %ID/g; tissue uptake at 0.25 h (in vivo [6]; kidneys): 9.27 %ID/g; tissue uptake at 1 h (in vivo [6]; kidneys): 1.97 %ID/g; tissue uptake at 3 h (in vivo [6]; kidneys): 1 %ID/g; tissue uptake at 0.25 h (in vivo [6]; tumor): 5.56 %ID/g; tissue uptake at 1 h (in vivo [6]; tumor): 6.3 %ID/g; tissue uptake at 3 h (in vivo [6]; tumor): 6.25 %ID/g
7 | CCCCNC(=O)N[C@H]1CSCc2cc(CSCCNC(=O)CCP(=O)(O)CN3CCN(CP(=O)(O)CO)CCN(CP(=O)(O)CO)CC3)cc(c2)CSCC(C(=O)O)NC(=O)[C@H](Cc2ccccc2)NC(=O)[C@H](CCC(=O)O)NC(=O)[C@H]([C@@H](C)O)NC(=O)[C@@H]2CCCN2C(=O)[C@@H]2CCCN2C1=O (stereo partly drawn) [3BP-4778, nBu-CAyl-[Cys(tMeBn(NOPO-AET))-Pro-Pro-Thr-Glu-Phe-Cys]-OH] ({NHBu-CO}-CPPTEF[ξC]-OH; linker 1-7 via X7) | < 10 |  |  |  |  |  |  |  |  |  |  | < 10 | < 10 | tissue uptake at 0.25 h (in vivo [6]; [8]): 1.61 %ID/g; tissue uptake at 1 h (in vivo [6]; [9]): 0.77 %ID/g; tissue uptake at 3 h (in vivo [6]; [10]): 0.33 %ID/g; tissue uptake at 0.25 h (in vivo [6]; [11]): 3.38 %ID/g; tissue uptake at 1 h (in vivo [6]; [12]): 1.81 %ID/g; tissue uptake at 3 h (in vivo [6]; [13]): 1 %ID/g; tissue uptake at 0.25 h (in vivo [6]; [14]): 3.66 %ID/g; tissue uptake at 1 h (in vivo [6]; [15]): 4.06 %ID/g; tissue uptake at 3 h (in vivo [6]; [16]): 4.45 %ID/g
